No end group written: not given here.
Key:
[1] = tested on: Sprague-Dawley rats; assay: Small and large intestinal transit (geometric center method) and fecal output after exogenous CRF; assay type: in vivo, rat
Experimental: (§1) Female Sprague-Dawley rats (150-200 g) are used in all tests described herein. The animals are housed in groups of five in a temperature-controlled room on a 12 hour light-dark cycle (7:00 AM to 7:00 PM) and are allowed water and rat chow ad libitum. Animals are allowed at least one week to recover from shipping before experiments are performed. Gastrointestinal transit, a measure of the propulsive motor activity of the intestine, is evaluated by the geometric center method (Miller et al., 1981, J. Pharmacol. Methods 6:211-217), in which a nonabsorable radioactive marker, ^51 Cr (0.2 ml) as sodium chromate in distilled water, is instilled directly into the proximal duodenum and proximal colon via Silastic cannulas surgically implanted under Equithesin anesthesia 3-5 days earlier. Thirty-five minutes after administration of the chromium, the animals are killed, and the stomach and intestine are removed and counted for gamma radiation. Gastric emptying is evaluated by quantitating the percent radioactivity emptied from the stomach in a 15 minute period. Radiochromium in distilled water (0.2 ml) is administered by oral gavage, and the animals are killed and emptying assessed 15 minutes later. CRF or vehicle is administered intravenously or intracerebroventricularly immediately before ^51 Cr.

[2] = tested on: Sprague-Dawley rats; assay: Gastric emptying of 51Cr after exogenous CRF; assay type: in vivo, rat; conditions: CRF 1.0 to 10.0 ug i.v. or i.c.v.; FIG. 1A
Experimental: as §1

[3] = tested on: plasma ACTH; assay: Plasma ACTH concentrations by radioimmunoassay after CRF; assay type: in vivo, rat; conditions: CRF 0.3 ug i.v.; for Plasma ACTH Concentration: mean ± SE
Experimental: CRF and alpha-helical CRF-(9-41) are purchased from Bachem. Drugs are diluted in distilled water, and NaOH (0.1 N) added to the solution, 1 ul at a time, until the compounds [CRF and alpha-helical CRF-(9-41)]go into solution, at a pH of ~6.8. The solutions are aliquotted into 25- and 50-ug supplies, lyophilized, and stored in a desiccator at 4°-8° C. until needed. Radioimmunoassay kits for determination of plasma levels of ACTH are purchased from ImmunoNuclear.
The following example compares the endocrine response to a low dose of exogenous CRF (0.3 ug i.v.) and to stress-induced release of endogenous CRF by measuring plasma ACTH concentrations by radioimmunoassay in animals that are wrap restrained or treated with CRF.
Blood is drawn from an indwelling jugular cannula, surgically placed under Equithesin anesthesia 3 days earlier. Blood (0.2 ml) is drawn 10 minutes before treatment, as well as 5, 10, 20, 30, 45, and 60 minutes after CRF administration or wrap-restraint stress. Blood is also drawn at the same time points from control animals are briefly ether anesthetized but which are not stressed or drug treated.

[4] = tested on: Sprague-Dawley rats; assay: Wrap-restraint stress-induced intestinal dysfunction, antagonist pretreatment; assay type: in vivo, rat
Experimental: as §1, with “Gastrointestinal” for “Female Sprague-Dawley rats (150-200 g) are used in all tests described herein. The animals are housed in groups of five in a temperature-controlled room on a 12 hour light-dark cycle (7:00 AM to 7:00 PM) and are allowed water and rat chow ad libitum. Animals are allowed at least one week to recover from shipping before experiments are performed. Gastrointestinal”
Wrapping-restraint stress, a relatively mild, nonulcerogenic model of restraint is used in all stress studies. Stressed animals are lightly anesthetized with ether, and their trunk, shoulders, and upper forelimbs are wrapped in a confining harness of masking tape. Control animals are lightly ether anesthetized but are not wrapped. Radiochromium is then administered, and the animals are killed 35 minutes later to assess intestinal transit. All stress experiments are performed in the late afternoon (4:00 to 7:00 PM) due to a strong circadian influence on the degree of intestinal dysfunction associated with stress at different times of the day. […]

[5] = tested on: Sprague-Dawley rats; assay: Intestinal transit after alpha-helical CRF-(9-41) alone or against exogenous CRF; assay type: in vivo, rat
Experimental: as §1, with “Gastrointestinal” for “Female Sprague-Dawley rats (150-200 g) are used in all tests described herein. The animals are housed in groups of five in a temperature-controlled room on a 12 hour light-dark cycle (7:00 AM to 7:00 PM) and are allowed water and rat chow ad libitum. Animals are allowed at least one week to recover from shipping before experiments are performed. Gastrointestinal”
Since CRF is likely to play an essential role in initiating both endocrine and autonomic responses to stress, it is probable that CRF mediates the effects of stress on the gut and that blockade of CRF receptors would lessen stress-induced disordered transit. […] The antagonist, alpha-helical CRF-[…] (50 ug, i.v. or i.c.v.), has no effect on small or larger intestinal transit itself when administered into the brain or the bloodstream.

[6] = tested on: pituitary ACTH release; conditions: Rivier et al., 1984, cited from earlier work
[7] = antagonist 50 ug i.v. or i.c.v., CRF 3 and 10 ug i.v. or i.c.v., same route

Corticotropin-releasing factor (SQEPPISLDLTFHLLREVLEMTKADQLAQQAHSNRKLLDIA; ends and bridges not checked; UniProt P01142 148-188, looked up) [CRF, peptide comprising 41 amino acid residues, first characterized from ovine hypothalamic extracts; purchased from Bachem]
Response of the gut to CRF compared with restraint stress ([1]; CRF 0.3 ug i.c.v., gastric emptying, small and large intestinal transit, fecal pellet output, FIG. 2): identical both in direction and degree | Fecal pellet output ([1]; CRF 0.3 to 10.0 ug): increased | Small intestinal transit ([1]; CRF 0.3 to 10.0 ug i.v. or i.c.v., FIG. 1B): inhibits | Colonic transit ([1]; CRF 0.3 to 10.0 ug i.v. or i.c.v., FIG. 1C): increases | Diarrhea ([1]; CRF at higher doses): diarrhea | Lowest effective dose ([1]; i.c.v., gastric and intestinal effects): 0.3 µg | Effectiveness of i.v. versus i.c.v. administration ([1]; intravenously versus intracerebroventricularly administered CRF): equally effective | Gastric emptying [2]: inhibited in a dose-dependent manner | Peak levels of ACTH compared with wrap-restraint stress [3]: very similar | Time course of ACTH release compared with stress-induced ACTH release [3]: more rapid time course | Plasma ACTH Concentration ([3]; 5 minutes after administration): 619 ± 70 pg/mL | Plasma ACTH Concentration ([3]; 10 minutes after administration): 494 ± 108 pg/mL | Plasma ACTH Concentration ([3]; 20 minutes after administration): 265 ± 93 pg/mL | Plasma ACTH Concentration ([3]; 30 minutes after administration): 174 ± 24 pg/mL | Plasma ACTH Concentration ([3]; 45 minutes after administration): 146 ± 33 pg/mL | Plasma ACTH Concentration ([3]; 60 minutes after administration): 141 ± 49 pg/mL | Plasma ACTH Concentration ([3]; time head +10 (10 minutes before treatment)): 64 ± 4 pg/mL

alpha-helical CRF-(9-41)
Stress-induced inhibition of small intestinal transit ([4]; 50 ug i.c.v. or i.v. immediately before stress, FIG. 3A): did not affect | Stress-induced increase in large intestinal transit ([4]; 50 ug i.c.v. or i.v. immediately before stress, FIG. 3B): completely blocked | Stress-induced increase in fecal pellet output ([4]; 50 ug i.c.v. or i.v. immediately before stress, FIG. 3C): significantly diminished | Stress-induced increase in colonic transit, higher dose versus 50 ug ([4]; 100 μg i.c.v.): did not result in a further decrease | Stress-induced increase in fecal excretion, higher dose versus 50 ug ([4]; 100 μg i.c.v.): did not result in a further decrease | Stress-induced inhibition of small intestinal transit ([4]; 100 μg i.c.v.): did not affect | Large intestinal transit, antagonist alone ([5]; 50 ug, i.v. or i.c.v.): has no effect | Small intestinal transit, antagonist alone ([5]; 50 ug, i.v. or i.c.v.): has no effect | Effects of exogenous CRF on large intestinal transit [5, 7]: effectively antagonizes | Effects of exogenous CRF on small intestinal transit [5, 7]: effectively antagonizes | Agonist activity [6]: little agonist activity | Effects of CRF and stress on pituitary ACTH release ([6]; both in vivo and in vitro): effectively antagonizes
